Results on three molecules are retold here after paper PMC5007854, “β-Nitrostyrenes as Potential Anti-leishmanial Agents” (Frontiers in Microbiology, 2016).

The structures appear in SMILES notation. ≈ marks a conversion by molar mass, not a printed value. Like-named read-outs stand apart in the source and are kept apart here.

In data set [1] the test system is L. donovani intracellular amastigotes. Description: Anti-amastigote activity in ex vivo macrophage model. Conditions: Leishmania donovani, Peritoneal macrophage, in Mus musculus; intracellular amastigotes in BALB/c peritoneal macrophages, 48 h; read-out: L. donovani amastigotes IC50 ± SEM. It is filed as cell-based, Leishmania donovani. The text has this: BALB/c mice was used for the isolation of peritoneal macrophages in the ex vivo anti-amastigote study after prior approval from the Jamia Hamdard Animal Ethics Committee (JHAEC). JHAEC is registered under the Committee for the purpose of supervision and control of experiments on animals (CPCSEA). Mice were individually housed in the Central Animal House of Jamia Hamdard as per internationally accepted norms. The mice were kept in standard size polycarbonate cages under controlled conditions of temperature (23 ± 1°C), humidity (55 ± 10%), 12:12 h of light and dark cycle and fed with standard pellet diet and filtered water (ad libitum).
Macrophages from the peritonial cavity of BALB/c mice (1 × 10^6 cellsml^−1) were allowed to adhere to round glass coverslips in a 24 well tissue culture plate and incubated for 12 h at 37°C in a CO2 incubator. After removal of the non-adherent macrophages, the cells were infected with stationary phase promastigotes using a cell to parasite ratio of 1:10 and incubated at 37°C for 24 h. The non-phagocytosed parasites were removed by washing, and the infected macrophages incubated with the test compounds 9, 12, 14, and 18 (0–25 μM) for an additional 48 h. The coverslips were fixed in methanol and giemsa-stained for microscopic evaluation (100X) of amastigote infectivity. Number of amastigotes per 100 macrophages were enumerated and the concentration that decreased amastigotes by 50% (IC50) was determined (Wong et al., [2012]; Islamuddin et al., [2014a]).
(§1) In vitro antileishmanial activity was expressed as IC50 by linear regression analysis. Values are mean ± SE of samples in triplicate from at least three independent experiments. Statistical analysis was performed using ANOVA followed by Dunnett's test. ^*P < 0.05, ^**P < 0.01 and ^***P < 0.001 compared with the untreated control group were considered significant.

Data set [2] relates to L. donovani promastigotes. Description: Leishmanicidal assay (growth reversion after wash-out). It is filed as cell-based, Leishmania donovani. Conditions: 1 μM, 72 h treatment, then 72 h in fresh media. As for the experimental part: To confirm the leishmanicidal effect of compounds 9, 12, 14, and 18, treated and untreated parasites (1 μM) after 72 h of incubation, were washed two times with fresh incomplete medium and finally resuspended in complete media, transferred back to 22°C and allowed to grow for 72 h. The viability of the parasites was determined microscopically (Afrin et al., [2001]).

The subject of data set [3] is Candida albicans ATCC 90028. Description: Broth microdilution antifungal susceptibility (MIC/MFC). The conditions noted are these: Candida albicans; for MIC: ATCC90028, 48 h, broth microdilution, 35°C, 48 h, read-out: MIC, Ca ATCC 90028; for MFC: ATCC90028, ≥99.9% reduction of original inoculum, read-out: MFC, Ca ATCC 90028. It is filed as cell-based. In outline:
(§2)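 CLSI broth microdilution: Ca/Mg-supplemented Mueller-Hinton for bacteria (~5 × 10^5 CFU/mL, 24 h), MOPS-buffered RPMI 1640 pH 7.0 for fungi (Candida ~2.5 × 10^4, Aspergillus 0.4-5 × 10^4 CFU/mL, 48 h), 35°C, 1% DMSO, 64 to 0.12 μg/mL. MIC read visually; MBC/MFC by plating clear wells.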
For orientation: In broth dilution the organism is exposed to a series of concentrations in liquid medium.

Data set [4] deals with Aspergillus fumigatus ATCC 16424. Described as above. The conditions noted are these: for MIC / MFC: Aspergillus fumigatus; for MIC: ATCC16424, 48 h, read-out: MIC, Af ATCC 16424; for MFC: ATCC16424, ≥99.9% reduction of original inoculum, read-out: MFC, Af ATCC 16424. It is filed as cell-based. Put shortly: as §2
Data set [5] has as its system Aspergillus niger ATCC 16404. The description is as above. It is filed as cell-based. Conditions: for MIC / MFC: Aspergillus niger; for MIC: ATCC16404, 48 h, read-out: MIC, An ATCC 16404; for MFC: ATCC16404, ≥99.9% reduction of original inoculum, read-out: MFC, An ATCC 16404. Put shortly:
as §2

The subject of data set [6] is Candida glabrata ATCC 90030. Described as above. It is filed as cell-based. The conditions noted are these: Nakaseomyces glabratus; for MIC: ATCC90030, 48 h, broth microdilution, 35°C, 48 h, read-out: MIC, Cg ATCC 90030; for MFC: ATCC90030, ≥99.9% reduction of original inoculum, read-out: MFC, Cg ATCC 90030. In outline:
as §2

Data set [7] concerns L. donovani promastigotes. Description: Dose-dependent anti-promastigote activity, IC50 and IC90. It is filed as cell-based, Leishmania donovani. As for the experimental part:
L. donovani parasites (MHOM/IN/83/AG83) were maintained in vivo in BALB/c mice. Promastigotes were routinely cultured at 22°C in medium M199 supplemented with 10% heat inactivated fetal bovine serum (FBS, HiMedia Laboratories, Mumbai, India), penicillin 100 (IU/ml), streptomycin (100 μg/ml). Log phase promastigotes were sub-cultured every 72–96 h, the inoculum being 2 × 10^6 cells/ml (Afrin et al., [2002]).
AmB was used as a standard antileishmanial drug control. The cell viability was evaluated by microscopically and the mean percentage viability was calculated as follows: Mean cell number of treated parasites / Mean cell number of untreated parasites × 100. The 50 and 90% inhibitory concentration (IC50 and IC90) i.e., the concentration of drugs that decreased the cell growth by 50 and 90% respectively was determined by graphical extrapolation after plotting the graph of % viability vs. concentration of drug (Islamuddin et al., [2014b]).
as §1

Data set [8] relates to Staphylococcus epidermidis ATCC 14990. Description: Broth microdilution antibacterial susceptibility (MIC/MBC). It is filed as cell-based. The conditions noted are these: for MIC / MBC: Staphylococcus epidermidis; for MIC: ATCC14990, 24 h, read-out: MIC, Se ATCC 14990; for MBC: ATCC14990, ≥99.9% reduction of original inoculum, read-out: MBC, Se ATCC 14990. In outline:
as §2

The test system of data set [9] is Escherichia coli ATCC 25922. The description is as above. It is filed as cell-based. Conditions: for MIC / MBC: Escherichia coli; for MIC: ATCC25922, 24 h, read-out: MIC, Ec ATCC 25922; for MBC: ATCC25922, ≥99.9% reduction of original inoculum, read-out: MBC, Ec ATCC 25922. In outline: as §2
In data set [10] the test system is Staphylococcus aureus ATCC 29213. The description is as above. Conditions: for MIC / MBC: Staphylococcus aureus; for MIC: ATCC29213, 24 h, read-out: MIC, Sa ATCC 29213; for MBC: ATCC29213, ≥99.9% reduction of original inoculum, read-out: MBC, Sa ATCC 29213. It is filed as cell-based. In outline:
as §2

The subject of data set [11] is Pseudomonas aeruginosa ATCC 27853. The data set is described as above. It is filed as cell-based. The conditions noted are these: for MIC / MBC: Pseudomonas aeruginosa; for MIC: ATCC27853, 24 h, read-out: MIC, Pa ATCC 27853; for MBC: ATCC27853, ≥99.9% reduction of original inoculum, read-out: MBC, Pa ATCC 27853. In outline:
as §2

Data set [12] relates to L. donovani promastigotes. Description: Anti-leishmanial screening at 100 μM, parasite viability by microscopy. It is filed as cell-based, Leishmania donovani. The conditions noted are these: 100 μM, 72 h, phase contrast microscope. In outline: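 Promastigotes (MHOM/IN/83/AG83) at 2 × 10^6 cells/mL in M199 with 10% FBS exposed to compound at 100 μM for 72 h at 22°C. Viability assessed microscopically; 0.2% DMSO solvent control, amphotericin B reference.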

[13] abbreviates: broth microdilution, 35°C, 48 h.
Setting [14] is: broth microdilution, 35°C, 24 h.

Broadly, the IC50 is the concentration that inhibits the measured activity by half. What is called MIC is the lowest concentration that inhibits growth of the organism. Broadly, the MFC is the lowest tested concentration that kills the fungus rather than only halting it. A word on the IC90: it is the concentration at which the effect reaches the 90% level. For orientation: MBC means the lowest tested concentration that kills the bacteria rather than only halting them. One may read the melting point as the temperature, or range, at which the solid turns liquid.

As for `C[C@@H]1[C@H](O)[C@@H](C)/C=C/C=C/C=C/C=C/C=C/C=C/C=C/[C@H](O[C@@H]2O[C@H](C)[C@@H](O)[C@H](N)[C@@H]2O)C[C@@H]2O[C@](O)(C[C@@H](O)C[C@@H](O)[C@H](O)CC[C@@H](O)C[C@@H](O)CC(=O)O[C@H]1C)C[C@H](O)[C@H]2C(=O)O` [AmB, Amphotericin B, reference compound], the IC50 in data set [1] came to 27.8 ± 3.26 nM; in data set [7] (Leishmania donovani, 72 h, 22°C, mean from three determinations, read-out: L. donovani promastigotes IC50 ± SEM), 0.0196 ± 0.00171 µM. Further, in data set [2], the “Leishmanicidal effect (reversion after wash and 72 h in fresh media)” value is “as also observed in positive drug control”. Besides, the MIC was 0.5 µg/mL (≈ 0.541 µM) in data set [3], 0.5 µg/mL (≈ 0.541 µM) in data set [4] (setting [13]), 1 µg/mL (≈ 1.08 µM) in [5] (setting [13]) and 0.5 µg/mL (≈ 0.541 µM) in [6]. Also, the MFC amounted to 0.5 µg/mL (≈ 0.541 µM) in data set [3], 1 µg/mL (≈ 1.08 µM) in data set [4], 1 µg/mL (≈ 1.08 µM) in data set [5] and 0.5 µg/mL (≈ 0.541 µM) in data set [6]. Besides, the IC90 in data set [7] (Leishmania donovani, 72 h, 22°C, mean from three determinations, read-out: L. donovani promastigotes IC90 ± SEM) worked out at 82.6 ± 1.36 nM.

For `CC/C(=C\c1cccc(O)c1)[N+](=O)[O-]` [Compound 21, 3-((E)-2-nitrobut-1-enyl) phenol], the melting point was 82 to 84 °C. Besides, in data set [3], the MFC was 32 µg/mL (≈ 166 µM). Moreover, in data set [4] (setting [13]), the MIC is 4 to 8 µg/mL (≈ 20.7 to 41.4 µM) and the “MIC, Af ATCC 16424” value stood at 8 µg/mL (≈ 41.4 µM). Also, the MFC in [4] came to 8 µg/mL (≈ 41.4 µM). In data set [5] (setting [13]), the MIC was in the range of 2 to 4 µg/mL (≈ 10.4 to 20.7 µM) and the “MIC, An ATCC 16404” value came out at 4 µg/mL (≈ 20.7 µM). Moreover, in [5], the MFC was 8 µg/mL (≈ 41.4 µM). For the same molecule, the MFC in data set [6] worked out at 16 µg/mL (≈ 82.8 µM). Besides, in [8] (setting [14]), the MIC fell in the range of 2 to 16 µg/mL (≈ 10.4 to 82.8 µM) and the “MIC, Se ATCC 14990” value is 2 µg/mL (≈ 10.4 µM). Moreover, the MBC in data set [8] came out at 2 µg/mL (≈ 10.4 µM). Also, in data set [9] (setting [14]), the MIC lay in the range of 16 to 32 µg/mL (≈ 82.8 to 166 µM) and the “MIC, Ec ATCC 25922” value is 32 µg/mL (≈ 166 µM). Moreover, in data set [9], the MBC is 64 µg/mL (≈ 331 µM). In data set [10] (setting [14]), the MIC is 2 to 32 µg/mL (≈ 10.4 to 166 µM) and the “MIC, Sa ATCC 29213” value is 2 µg/mL (≈ 10.4 µM). The MBC in data set [10] is 4 µg/mL (≈ 20.7 µM). Besides, in data set [11] (setting [14]), the MIC is 16 to 32 µg/mL (≈ 82.8 to 166 µM) and the “MIC, Pa ATCC 27853” value was determined as 32 µg/mL (≈ 166 µM). Also, in [11], the minimum bactericidal concentration (MBC) came out at 64 µg/mL (≈ 331 µM). Moreover, the “Parasite viability after treatment” value in data set [12] is “All the parasites were found to be dead”. Further, in data set [7] (Leishmania donovani, 72 h, 22°C, values given in μM, read-out: IC50 against promastigotes), the IC50 came out at 28.4 ± 3.11 µM.

For `COc1ccc(/C=C(\C)[N+](=O)[O-])cc1OC` [Compound 23, 1,2-dimethoxy-4-((E)-2-nitroprop-1-enyl) benzene], the melting point was in the range of 70 to 72 °C. Also, in data set [3], the MIC came out at 32 µg/mL (≈ 143 µM) and the minimal fungicidal concentration (MFC) is 32 µg/mL (≈ 143 µM). Moreover, in data set [4] (setting [13]), the MIC worked out at 16 µg/mL (≈ 71.7 µM). Moreover, in [4], the MFC was 16 µg/mL (≈ 71.7 µM). The MIC in data set [5] (setting [13]) turned out to be 8 µg/mL (≈ 35.8 µM). Moreover, in data set [5], the MFC was found to be 8 µg/mL (≈ 35.8 µM). Further, in data set [6], the MIC turned out to be 4 µg/mL (≈ 17.9 µM) and the MFC was 4 µg/mL (≈ 17.9 µM). For the same molecule, the MIC in [8] (setting [14]) is 8 µg/mL (≈ 35.8 µM). The MBC in [8] came to 8 µg/mL (≈ 35.8 µM). The MIC in data set [9] (setting [14]) is more than 64 µg/mL. Also, the MBC in [9] was more than 64 µg/mL. The MIC in [10] (setting [14]) worked out at 8 µg/mL (≈ 35.8 µM). For the same molecule, the MBC in [10] came out at 16 µg/mL (≈ 71.7 µM). Further, the MIC in data set [11] (setting [14]) was more than 64 µg/mL. Moreover, the MBC in [11] is more than 64 µg/mL. For the same molecule, the “Parasite viability after treatment” value in data set [12] is “All the parasites were found to be dead”. In addition, the “Anti-leishmanial activity, in words (compounds with IC50 determined)” value in data set [7] (L. donovani promastigotes) is “moderate activity”.
